Data as given in ChEMBL document CHEMBL1201862, “PubChem BioAssay data set” (2004).
Calls of active or inactive are those of the source.

Key:
[1] = biological target: Apoptotic protease-activating factor 1 (Homo sapiens, UniProt O14727); experiment: SAR analysis of small molecule Activators of Apaf-1 in a Fluorescent assay.; type: functional; conditions: read-out: EC50_Mean;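 further: caspase-3 cleavage of fluorogenic Rh110 DEVD substrate downstream of apoptosome activation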
[2] = biological target: Protein disulfide-isomerase (Homo sapiens, UniProt P07237); experiment: inhibition of PDI-driven insulin aggregation – biochemical, turbidity, absorbance, cherry-picked samples, dose response (AID 602350); type: functional
Chain of Protein disulfide-isomerase (P07237 whole entry): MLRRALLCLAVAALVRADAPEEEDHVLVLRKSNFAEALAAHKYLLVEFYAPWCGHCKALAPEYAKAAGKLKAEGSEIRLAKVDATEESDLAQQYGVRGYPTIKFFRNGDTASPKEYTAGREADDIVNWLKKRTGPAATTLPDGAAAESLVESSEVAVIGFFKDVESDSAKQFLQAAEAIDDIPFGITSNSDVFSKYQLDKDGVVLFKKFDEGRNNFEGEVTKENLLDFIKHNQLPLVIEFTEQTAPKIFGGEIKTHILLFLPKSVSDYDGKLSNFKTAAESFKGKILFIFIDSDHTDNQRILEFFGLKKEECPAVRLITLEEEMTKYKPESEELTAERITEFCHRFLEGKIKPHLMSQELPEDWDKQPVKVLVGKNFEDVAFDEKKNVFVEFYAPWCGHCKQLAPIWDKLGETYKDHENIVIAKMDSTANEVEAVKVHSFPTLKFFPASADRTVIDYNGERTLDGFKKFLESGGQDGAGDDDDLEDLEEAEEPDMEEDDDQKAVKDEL

Cytochrome P450 2D6 = Cytochrome P450 2D6 (Homo sapiens, UniProt P10635);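 further: CYP2D6 member of a cytochrome P450 panel assay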
Chain of Cytochrome P450 2D6 (P10635 whole entry): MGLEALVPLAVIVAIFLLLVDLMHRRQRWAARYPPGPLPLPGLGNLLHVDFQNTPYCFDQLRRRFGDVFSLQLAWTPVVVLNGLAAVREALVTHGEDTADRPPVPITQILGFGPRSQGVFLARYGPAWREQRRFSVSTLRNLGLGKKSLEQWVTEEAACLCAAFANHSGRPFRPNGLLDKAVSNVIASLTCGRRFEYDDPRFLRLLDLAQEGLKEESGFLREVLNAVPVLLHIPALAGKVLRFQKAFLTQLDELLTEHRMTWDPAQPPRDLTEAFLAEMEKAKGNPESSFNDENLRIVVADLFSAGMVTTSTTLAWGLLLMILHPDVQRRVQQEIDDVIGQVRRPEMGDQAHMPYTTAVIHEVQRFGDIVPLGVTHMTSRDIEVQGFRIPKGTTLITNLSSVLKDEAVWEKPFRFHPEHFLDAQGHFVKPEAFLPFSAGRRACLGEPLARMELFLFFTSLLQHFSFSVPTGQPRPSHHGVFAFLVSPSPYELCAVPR

Cytochrome P450 1A2 = biological target: T1, Cytochrome P450 1A2 (Homo sapiens, UniProt P05177);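 further: PubChem cytochrome P450 panel assay, CYP1A2 panel member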
T1 sequence (P05177 whole entry): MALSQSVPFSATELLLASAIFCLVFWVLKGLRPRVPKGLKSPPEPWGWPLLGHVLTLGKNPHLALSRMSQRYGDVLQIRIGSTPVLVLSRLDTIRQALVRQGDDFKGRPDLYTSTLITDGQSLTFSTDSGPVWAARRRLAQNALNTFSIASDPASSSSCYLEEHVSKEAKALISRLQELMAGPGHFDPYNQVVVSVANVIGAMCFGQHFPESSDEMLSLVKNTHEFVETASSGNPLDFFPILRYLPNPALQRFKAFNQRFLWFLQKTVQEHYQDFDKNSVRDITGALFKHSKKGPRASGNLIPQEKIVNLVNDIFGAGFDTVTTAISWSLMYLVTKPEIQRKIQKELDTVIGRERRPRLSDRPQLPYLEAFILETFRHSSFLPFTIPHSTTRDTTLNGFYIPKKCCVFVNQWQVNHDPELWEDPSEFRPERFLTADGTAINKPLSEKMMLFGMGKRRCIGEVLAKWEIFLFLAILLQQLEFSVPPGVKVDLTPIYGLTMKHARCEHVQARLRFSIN

[3] = biological target: Adenosylmethionine-8-amino-7-oxononanoate aminotransferase (Mycobacterium tuberculosis, UniProt P9WQ81); experiment: Mycobacterium tuberculosis BioA enzyme inhibitor Measured in Biochemical System Using Plate Reader - 2163-02_Inhibitor_Dose_CherryPick_Activity.; type: functional, Mycobacterium tuberculosis UT205
Chain of Adenosylmethionine-8-amino-7-oxononanoate aminotransferase (P9WQ81 whole entry): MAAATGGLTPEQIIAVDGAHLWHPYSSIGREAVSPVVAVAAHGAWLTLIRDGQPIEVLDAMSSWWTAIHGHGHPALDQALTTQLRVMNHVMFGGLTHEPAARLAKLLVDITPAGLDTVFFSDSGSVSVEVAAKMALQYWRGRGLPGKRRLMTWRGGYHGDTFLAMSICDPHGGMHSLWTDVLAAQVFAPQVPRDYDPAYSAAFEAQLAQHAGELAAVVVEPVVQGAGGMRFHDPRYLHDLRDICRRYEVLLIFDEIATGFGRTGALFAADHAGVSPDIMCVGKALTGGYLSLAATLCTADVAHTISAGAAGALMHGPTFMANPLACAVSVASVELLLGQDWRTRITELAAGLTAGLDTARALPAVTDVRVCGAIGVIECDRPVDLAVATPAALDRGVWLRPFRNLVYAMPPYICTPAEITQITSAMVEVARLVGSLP

Cytochrome P450 3A4 = Cytochrome P450 3A4 (Homo sapiens, UniProt P08684);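 further: CYP3A4 tested as one member of a cytochrome P450 panel screen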
Chain of Cytochrome P450 3A4 (P08684 whole entry): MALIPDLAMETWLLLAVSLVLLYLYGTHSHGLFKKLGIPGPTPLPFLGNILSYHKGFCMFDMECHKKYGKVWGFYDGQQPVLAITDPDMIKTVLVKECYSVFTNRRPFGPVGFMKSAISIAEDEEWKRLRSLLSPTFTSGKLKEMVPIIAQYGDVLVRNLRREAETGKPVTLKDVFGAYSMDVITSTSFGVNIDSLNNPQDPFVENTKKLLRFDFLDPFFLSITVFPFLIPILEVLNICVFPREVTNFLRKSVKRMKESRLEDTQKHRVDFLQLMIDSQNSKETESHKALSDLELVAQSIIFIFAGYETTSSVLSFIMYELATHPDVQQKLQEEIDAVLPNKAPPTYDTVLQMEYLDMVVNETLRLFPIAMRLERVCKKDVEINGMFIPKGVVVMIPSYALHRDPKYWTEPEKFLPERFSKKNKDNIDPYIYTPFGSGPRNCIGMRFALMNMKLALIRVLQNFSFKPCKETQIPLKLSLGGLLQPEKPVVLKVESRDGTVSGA

[4] = bead-based luminescence quenchers, dual-tagged ARNT – biochemical, AlphaScreen, cherry-pick, artefact control for ARNT-TACC3 interaction inhibitor project, dose response (AID 651705); type: functional;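 further: AlphaScreen bead proximity signal that flags compounds interfering with the detection technology; potency reflects signal decrease which marks the compound as an assay artifact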
[5] = cAMP pathway inhibition in counterscreen cell line – TR-FRET cAMP detection, counter-screen for MC4R biased antagonist project, dose response (AID 602305); type: functional, cell-based;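 further: U2OS cells stimulated with forskolin near its EC80 as the cAMP inducer; potency is for inhibition of forskolin-stimulated cAMP signaling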
Melanocortin receptor 4 = Melanocortin receptor 4 (Homo sapiens, UniProt P32245); experiment: inhibitors of MC4R cAMP signaling – cell-based, TR-FRET, biased antagonists, dose response (AID 602298); type: functional;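 further: antagonist potency against agonist-stimulated cAMP production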
Chain of Melanocortin receptor 4 (P32245 whole entry): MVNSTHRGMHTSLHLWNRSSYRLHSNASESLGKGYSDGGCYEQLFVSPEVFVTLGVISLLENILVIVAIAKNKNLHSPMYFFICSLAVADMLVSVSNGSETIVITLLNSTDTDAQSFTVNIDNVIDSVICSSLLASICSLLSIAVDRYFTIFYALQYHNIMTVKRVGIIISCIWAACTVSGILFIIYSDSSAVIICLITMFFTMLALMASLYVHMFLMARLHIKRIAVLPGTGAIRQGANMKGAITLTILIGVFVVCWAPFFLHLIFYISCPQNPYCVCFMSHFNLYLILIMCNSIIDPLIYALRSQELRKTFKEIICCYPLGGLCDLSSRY

Chain of Apoptotic protease-activating factor 1 (O14727 whole entry): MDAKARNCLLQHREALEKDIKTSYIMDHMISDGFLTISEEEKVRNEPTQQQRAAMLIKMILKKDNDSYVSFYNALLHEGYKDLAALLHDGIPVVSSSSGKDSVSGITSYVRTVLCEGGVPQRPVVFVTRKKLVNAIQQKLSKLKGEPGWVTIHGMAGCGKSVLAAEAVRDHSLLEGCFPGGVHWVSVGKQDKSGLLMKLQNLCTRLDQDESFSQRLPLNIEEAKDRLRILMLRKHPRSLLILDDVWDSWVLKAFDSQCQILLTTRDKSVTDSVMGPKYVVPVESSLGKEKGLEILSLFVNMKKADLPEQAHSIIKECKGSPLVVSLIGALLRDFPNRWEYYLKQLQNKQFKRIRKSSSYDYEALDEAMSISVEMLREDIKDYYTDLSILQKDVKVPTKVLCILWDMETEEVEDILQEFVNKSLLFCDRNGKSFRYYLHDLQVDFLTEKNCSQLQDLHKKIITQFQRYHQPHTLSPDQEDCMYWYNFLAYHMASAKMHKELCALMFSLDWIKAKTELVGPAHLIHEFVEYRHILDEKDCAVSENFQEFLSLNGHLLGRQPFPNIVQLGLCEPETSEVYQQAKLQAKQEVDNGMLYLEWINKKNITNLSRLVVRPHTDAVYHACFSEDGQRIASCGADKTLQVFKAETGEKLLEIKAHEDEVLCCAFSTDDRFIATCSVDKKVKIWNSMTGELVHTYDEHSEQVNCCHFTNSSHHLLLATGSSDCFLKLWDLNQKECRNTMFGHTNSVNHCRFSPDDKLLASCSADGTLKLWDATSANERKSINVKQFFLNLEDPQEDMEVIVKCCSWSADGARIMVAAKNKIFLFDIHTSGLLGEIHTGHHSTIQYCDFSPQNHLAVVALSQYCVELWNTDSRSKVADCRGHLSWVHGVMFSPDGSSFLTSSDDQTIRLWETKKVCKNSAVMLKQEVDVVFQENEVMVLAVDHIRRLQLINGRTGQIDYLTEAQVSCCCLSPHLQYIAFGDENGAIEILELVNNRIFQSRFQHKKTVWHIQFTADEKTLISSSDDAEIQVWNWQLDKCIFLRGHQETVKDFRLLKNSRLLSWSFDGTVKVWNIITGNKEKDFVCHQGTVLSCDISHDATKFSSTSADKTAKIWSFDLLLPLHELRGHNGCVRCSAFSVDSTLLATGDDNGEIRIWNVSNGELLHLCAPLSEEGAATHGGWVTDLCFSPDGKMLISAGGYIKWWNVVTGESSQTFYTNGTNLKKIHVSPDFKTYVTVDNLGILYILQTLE

**Q.** For `Cc1cc(C)n(C(C)CC(=O)Nc2cccnc2)n1` (centres undefined), which EC50 [1] is on record?
**A.** > 100 µM (inactive)

**Q.** For `C[C@H](CO)N1C[C@H](C)[C@H](CN(C)Cc2ccccc2)Oc2ccc(NC(=O)Nc3ccccc3)cc2CC1=O`, which AC50 [2] is on record?
**A.** 19.5 µM (active)

**Q.** For `Cc1ccc(Cc2c(C)nc3nc(SCC(=O)NCc4ccco4)nn3c2C)cc1`, which AC50 (Cytochrome P450 2D6) is on record?
**A.** 25.1 µM (inconclusive)

**Q.** And the AC50 (Cytochrome P450 1A2)?
**A.** 0.00631 µM (inconclusive)

**Q.** And the AC50 [3]?
**A.** 4.86 µM (active)

**Q.** And the AC50 (Cytochrome P450 3A4)?
**A.** 3.16 µM (inconclusive)

**Q.** Which AC50 [4] does the source give for `CCCCCC/C=N/Nc1nnc(Cc2ccc(OC)c(OC)c2)c(O)n1` here?
**A.** 132 µM (active)

**Q.** With `Cc1[nH]c(C)c(C(=O)/C=C/c2ccc([N+](=O)[O-])cc2)c1C` as the compound, how does the IC50 [5] read?
**A.** > 64.6 µM (inactive)

**Q.** And the IC50 (Melanocortin receptor 4)?
**A.** > 64.6 µM (inactive)
